Test results taken from patent US7148325B2, “Chimeric retroviral gag genes and screening assays” (priority 2000, dated 2006).
Entries after “also recorded” stand apart in the source; their conditions may differ.

Experiments:
M-PMV Gag [1] = biological target: T1, M-PMV Gag (Mason-Pfizer monkey virus, UniProt P07567); test: In vitro transcription/translation and assembly, sucrose density gradient fractionation and SDS-PAGE, M-PMV Gag; assay type: biochemical; conditions: added with cyclohexamide after 30 minutes of incubation, reaction continued 90 minutes
T1 construct: made in house; host or cells: cell-free: coupled in vitro transcription/translation in rabbit reticulocyte lysate
Method: (§1) FIGS. 3A–E—In vitro transcription and translation reactions using plasmids containing M-PMV, HIV, and Chimera 3a gag genes. After 30 minutes of incubation, cyclohexamide (left panels, FIGS. 3A, 3C, and 3E) or cyclohexamide plus bis-ANS (right panels, FIGS. 3B, 3D, and 3F) were added to the reactions. The reactions were then allowed to continue for an additional 90 minutes. Assembled products were analyzed by sucrose density gradient fractionation and SDS-PAGE. Like M-PMV, but in contrast to HIV, the formation of sedimented material indicative of particle formation by Chimera 3a has been inhibited by the addition of bis-ANS.
FIGS. 4A–D—In vitro transcription and translation reactions using plasmids containing M-PMV and Chimera 4 gag genes. After 30 minutes of incubation, cyclohexamide (left panels, FIGS. 4A and 4C) or cyclohexamide plus bis-ANS (right panels, FIGS. 4B and 4D) were added to the reactions. The reactions were then allowed to continue for an additional 90 minutes. Assembled products were analyzed by sucrose density gradient fractionation and SDS-PAGE. Like M-PMV, the formation of sedimented material by Chimera 4 has been inhibited by the addition of bis-ANS. Lanes L and P indicate the loading material and re-suspended pellet, respectively. […]

Chimera 3a = biological target: T2, Chimera 3a (Human immunodeficiency virus type 1 group M subtype B, UniProt P04591); test: In vitro transcription/translation and assembly, sucrose density gradient fractionation and SDS-PAGE, Chimera 3a Gag; assay type: biochemical, HIV / M-PMV; conditions: added with cyclohexamide after 30 minutes of incubation, reaction continued 90 minutes
T2 construct: made in house; host or cells: cell-free: in vitro transcription/translation (reticulocyte lysate) from plasmid pDABCh3a
Method: as §1
(§2) In vitro assembly assays, such as that taught by Sakalian, M., et al. (1996), “Synthesis and assembly of retrovirus Gag precursors into immature capsids in vitro,” J Virol 70, pp. 3706–15, hereby incorporated by reference in its entirety, maybe used to screen for inhibitors of capsid assembly. Briefly, in vitro transcription of chimeric gag -containing plasmids to produce capped RNA transcripts may be performed using the mMESSAGE MMACHINE kit (Ambion, Austin, Tex.), in accordance with the manufacturers instructions. Translation reactions may be performed in the presence of [^35S]methionine in commercially-available rabbit reticulocyte lysates, according to the instructions of the manufacturer (for example, Promega). […]

Chimera 4 = biological target: T3, Chimera 4 (Human immunodeficiency virus type 1 group M subtype B, UniProt P04591); test: In vitro transcription/translation and assembly, sucrose density gradient fractionation and SDS-PAGE, Chimera 4 Gag; assay type: biochemical, HIV / M-PMV; conditions: added with cyclohexamide after 30 minutes of incubation, reaction continued 90 minutes
T3 construct: the megaprimer reaction yielded a product that contained all of HIV Gag fused to M-PMV p12; made in house; host or cells: cell-free: in vitro transcription/translation (reticulocyte lysate) from plasmid pDABCh4
Method: FIGS. 4A–D—In vitro transcription and translation reactions using plasmids containing M-PMV and Chimera 4 gag genes. After 30 minutes of incubation, cyclohexamide (left panels, FIGS. 4A and 4C) or cyclohexamide plus bis-ANS (right panels, FIGS. 4B and 4D) were added to the reactions. The reactions were then allowed to continue for an additional 90 minutes. Assembled products were analyzed by sucrose density gradient fractionation and SDS-PAGE. Like M-PMV, the formation of sedimented material by Chimera 4 has been inhibited by the addition of bis-ANS. Lanes L and P indicate the loading material and re-suspended pellet, respectively.
as §2

HIV Gag = biological target: T4, HIV Gag (Human immunodeficiency virus type 1 group M subtype B, UniProt P04591); test: In vitro transcription/translation, sucrose density gradient fractionation and SDS-PAGE, HIV Gag; assay type: biochemical; conditions: added with cyclohexamide after 30 minutes of incubation, reaction continued 90 minutes
T4 construct: made in house; host or cells: cell-free: in vitro transcription/translation (reticulocyte lysate)
Method: as §1, §2

M-PMV Gag [2] = biological target: T1, M-PMV Gag; test: In vitro transcription/translation, pelleting through a sucrose cushion (rapid centrifugation assay), M-PMV Gag; assay type: biochemical; conditions: added after 30 minutes, continued 90 minutes; sucrose cushion 35% w/v
Method: FIG. 5—In vitro transcription and translation reactions using plasmids containing M-PMV gag genes. After 30 minutes of incubation, anti-p 12 antibody or bis-ANS was added to the reactions. The reactions were then allowed to continue for an additional 90 minutes. Assembled products were analyzed by pelleting through a sucrose cushion (35% w/v). Synthesis reactions were pelleted through a sucrose cushion, and supernatant and pellet were then collected for gel analysis. […] Lanes S and P indicate supernatant and pellet, respectively.

T1 sequence (P07567 whole entry): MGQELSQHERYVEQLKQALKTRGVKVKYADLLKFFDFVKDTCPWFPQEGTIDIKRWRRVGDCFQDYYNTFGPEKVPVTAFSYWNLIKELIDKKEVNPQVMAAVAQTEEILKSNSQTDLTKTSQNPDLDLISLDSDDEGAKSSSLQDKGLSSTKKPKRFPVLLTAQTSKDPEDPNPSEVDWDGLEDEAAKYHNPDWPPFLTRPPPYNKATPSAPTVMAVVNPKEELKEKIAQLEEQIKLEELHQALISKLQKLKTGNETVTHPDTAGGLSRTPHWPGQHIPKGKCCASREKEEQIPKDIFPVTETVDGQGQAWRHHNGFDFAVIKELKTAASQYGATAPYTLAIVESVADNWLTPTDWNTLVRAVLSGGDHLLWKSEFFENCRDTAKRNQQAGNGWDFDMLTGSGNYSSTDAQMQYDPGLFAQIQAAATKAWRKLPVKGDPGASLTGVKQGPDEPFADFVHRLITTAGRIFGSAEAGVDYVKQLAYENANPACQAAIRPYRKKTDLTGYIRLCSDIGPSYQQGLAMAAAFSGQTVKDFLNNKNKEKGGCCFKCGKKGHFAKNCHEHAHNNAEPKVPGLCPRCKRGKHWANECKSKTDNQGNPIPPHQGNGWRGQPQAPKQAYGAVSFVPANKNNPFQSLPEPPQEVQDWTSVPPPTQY

For `O=S(=O)(O)c1cccc2c(-c3ccc(Nc4ccccc4)c4c(S(=O)(=O)O)cccc34)ccc(Nc3ccccc3)c12` [bis-ANS], which “formation of sedimented material by M-PMV Gag” value (M-PMV Gag [1]) is on record?
Its value is “inhibited”.

What about the “formation of sedimented material indicative of particle formation by Chimera 3a” value (Chimera 3a) of the same compound?
Its value is “inhibited; also recorded: largely blocked”.

What about the “formation of sedimented material by Chimera 4” value (Chimera 4) of the same compound?
Its value is “inhibited; also recorded: largely blocked”.

And the “distribution of HIV Gag in sucrose gradients” value (HIV Gag)?
The value was “no effect”.

And the “formation of pelletable material by M-PMV Gag (immature M-PMV viral capsids)” value (M-PMV Gag [2])?
Its value is “reduce or prevent; also recorded: significantly reduce”.
